The target in data set [1] is T1, SMARCA2 (Homo sapiens, UniProt P51531).
T1 construct: The SMARCA2-1 gene (amino acids 437-1493) encompassing all domains; made in house; host or cells: expiSF9 insect cells (baculovirus, pFASTBac1)
The experiment in a line: Secondary ATPase assay. Format: biochemical. On the procedure:
Exemplary compounds were evaluated for their ability to inhibit human SMARCA2 in ATPase assays as detailed in Table 2 below. Dose response curves for compound nos.

The subject of the next data set is Ewing's sarcoma (EW13). The experiment in a line: Patient-derived xenograft (PDX) mouse model, single mouse testing (SMT). The data set is classed as in vivo. The conditions noted are these: 50 mg/kg orally three times a week for four weeks. As to the method: To assess the antitumor activity of AT-301 in a mouse model, a single mouse testing (SMT) experiment was used. SMT has 95% concordance with conventional testing and allows far greater inclusion of genetic/epigenetic heterogeneity. A patient-derived xenograft (PDX) mouse model (C.B.17 scid females (Envigo, IN)) of Ewing's sarcoma (EW13) was used in the SMT experiment. 50 mg/kg of AT-301 (formulated in 30% captisol) or just vehicle (30% captisol) was administered orally three times a week for four weeks.
In general terms: Xenograft models place foreign cells or tissue in a host animal.

The test system of a further data set is HCC827. The experiment in a line: Cell proliferation assay and IC50 measurement (PrestoBlue). The data set is classed as cell-based. The conditions noted are these: Homo sapiens, PrestoBlue cell viability. As to the method: (§1) FIG. 10A-C show representative data illustrating that AT-301 kills Ewing's, RMS, GBM, AML, and other cancer cells. Cell lines were treated with serial dilutions (2×) of AT-301, and IC50 values of each cell line were determined using PrestoBlue dye for cell viability following manufacturer's protocol (Invitrogen, A13261). See also Table 3.
(§2) Jurkat, Molt-4, RH4, RH30, BT40, GBM2, ES3, ES6, ES7, HC827, H1975, H2030 cells: RPMI 1640, 10% FBS, Penicillin (100 units/mL) and streptomycin (100 μg/mL) in the presence of 5% CO2.
(§3) Proliferation of adherent cells was determined on the IncuCyte live-cell imaging system (Essen BioScience). Cells were seeded on clear bottom 96 well plates at a seeding density of 2000 cells/well. Cells were allowed to attach overnight after which the medium was replaced with fresh medium containing serial dilutions (2×) of the compound or DMSO control. Percent confluence was calculated by the IncuCyte software from four different images per well from at least three replicate wells. For non-adherent cells, the 96-well plates were coated with poly-L-lysine before seeding to facilitate cell adhesion. At the end of the assay, dose-dependent cell viability was determined by staining the cells with PrestoBlue (Invitrogen, A13261) as per manufacturer's instructions and IC50 was calculated (FIG. 10).

The test system of another data set is RH30. The data set is described as above. The data set is classed as cell-based. Particulars: PrestoBlue cell viability. As to the method:
as §1, §2, §3

For a further data set, the system named is RH4. The description is as above. The data set is classed as cell-based. The conditions noted are these: PrestoBlue cell viability. As to the method: as §1, §2, §3
The next data set concerns Molt4. The data set is described as above. The data set is classed as cell-based. Particulars: Homo sapiens, MOLT-4, PrestoBlue cell viability. As to the method: as §1, §2, §3
Another data set concerns Jurkat. The description is as above. Particulars: Homo sapiens, PrestoBlue cell viability. The data set is classed as cell-based. As to the method:
as §1, §2, §3

Another data set has as its system GBM2. The data set is described as above. Particulars: PrestoBlue cell viability. The data set is classed as cell-based. On the procedure: as §1, §2, §3
In another data set the test system is H2030. The data set is described as above. Format: cell-based. The conditions noted are these: Homo sapiens, NCI-H2030, PrestoBlue cell viability. As to the method:
as §1, §2, §3

Another data set deals with ES3. The data set is described as above. The data set is classed as cell-based. Particulars: PrestoBlue cell viability. On the procedure: as §1, §2, §3
For the next data set, the system named is BT40. Described as above. Format: cell-based. The conditions noted are these: PrestoBlue cell viability. On the procedure:
as §1, §2, §3

Another data set has as its system H1975. Described as above. Format: cell-based. Particulars: Homo sapiens, NCI-H1975, PrestoBlue cell viability. As to the method: as §1, §2, §3
The next data set concerns ES6. Described as above. The conditions noted are these: PrestoBlue cell viability. Format: cell-based. On the procedure:
as §1, §2, §3

For a further data set, the system named is ES3 cells. The experiment in a line: Live imaging of ES3 cells. Format: cell-based. As to the method:
In vivo live imaging of ES3 cells in the presence of AT-301 (IC50˜5 μM).
Briefly, human SMARCA2 was purified, and a high-throughput screen (HTS) of 40,000 compounds was conducted. […] In brief, cells were grown in RPMI media supplemented with 10% Fetal bovine serum (FBS), 1× penicillin, and streptomycin antibiotics. Cells were placed in an incubator with 5% C02 and 50% humidity. When cells reached 90% confluency, cells were harvested, washed twice in 1×PBS, counted using trypan blue exclusion method. Then cells were seeded in 96-well plates (duplicates, n=2) at the density of 20,000 cells per well. Allowed them to attach to the bottom of the well for 1 to 2 hrs and treated with different concentration of AT-301 compound starting at highest concentration of 10 micromolar to serial dilution of the compound to the lowest concentration of 0.039 micromolar. Cells treated with only DMSO were also included as negative control. Cells were monitored for 72 hrs. by live cell imaging method (Incucyte S3) taking images every two hours. The confluency was determined and plotted against time (hours) by using Prism software.

The target of data set [2] is T1, SMARCA2. The experiment in a line: ATPase activity of SMARCA2 on different DNA/chromatin substrates (enzyme-coupled phosphate release assay). Format: biochemical. The conditions noted are these: 5 μM AT-301; 147 bp nucleosomal DNA, 29 bp duplex DNA, NCP. An excerpt: FIG. 9A-C show representative data illustrating that AT-301 attenuates the ATPase activity of SMARCA2 in different DNA/chromatin substrates.
In brief, the disclosed ATPase assay is based on the inorganic phosphate (Pi) release from the enzymatic reaction, wherein the substrate 2-amino-6-mercapto-7-methylpurine ribose (MESG) is converted by purine phosphorylase (PNP) to ribose 1-phosphate and 2-amino-6-mercapto-7-methylpurine. This conversion changes the spectrophotometric shift of MSEG absorbance from 330 nm to 360 nm (FIG. 1C and FIG. 1D).
SMARCA2 can interact with nucleosomal, extra nucleosomal DNA, and a DNA wrapped around the histone octamer. These substrates were prepared, and the ATPase activity of SMARCA2 on these substrates were evaluated in the presence and absence of AT-301. Specifically, as shown in FIG. 9A-C, mononucleosome core particles (NCP) were reconstituted from purified histone octamer and 147 bp widom nucleosomal DNA. An electromobility shift assay (EMSA) was used to monitor the direct binding of SMARCA2 to NCP. […] The ATPase activity of SMARCA2 was also evaluated on alternative substrates (a 29-mer duplex DNA, 147 bp nucleosomal DNA, and reconstituted NCP).

“Also recorded” adds a separate entry of the source.

T1 sequence (P51531 437-1493): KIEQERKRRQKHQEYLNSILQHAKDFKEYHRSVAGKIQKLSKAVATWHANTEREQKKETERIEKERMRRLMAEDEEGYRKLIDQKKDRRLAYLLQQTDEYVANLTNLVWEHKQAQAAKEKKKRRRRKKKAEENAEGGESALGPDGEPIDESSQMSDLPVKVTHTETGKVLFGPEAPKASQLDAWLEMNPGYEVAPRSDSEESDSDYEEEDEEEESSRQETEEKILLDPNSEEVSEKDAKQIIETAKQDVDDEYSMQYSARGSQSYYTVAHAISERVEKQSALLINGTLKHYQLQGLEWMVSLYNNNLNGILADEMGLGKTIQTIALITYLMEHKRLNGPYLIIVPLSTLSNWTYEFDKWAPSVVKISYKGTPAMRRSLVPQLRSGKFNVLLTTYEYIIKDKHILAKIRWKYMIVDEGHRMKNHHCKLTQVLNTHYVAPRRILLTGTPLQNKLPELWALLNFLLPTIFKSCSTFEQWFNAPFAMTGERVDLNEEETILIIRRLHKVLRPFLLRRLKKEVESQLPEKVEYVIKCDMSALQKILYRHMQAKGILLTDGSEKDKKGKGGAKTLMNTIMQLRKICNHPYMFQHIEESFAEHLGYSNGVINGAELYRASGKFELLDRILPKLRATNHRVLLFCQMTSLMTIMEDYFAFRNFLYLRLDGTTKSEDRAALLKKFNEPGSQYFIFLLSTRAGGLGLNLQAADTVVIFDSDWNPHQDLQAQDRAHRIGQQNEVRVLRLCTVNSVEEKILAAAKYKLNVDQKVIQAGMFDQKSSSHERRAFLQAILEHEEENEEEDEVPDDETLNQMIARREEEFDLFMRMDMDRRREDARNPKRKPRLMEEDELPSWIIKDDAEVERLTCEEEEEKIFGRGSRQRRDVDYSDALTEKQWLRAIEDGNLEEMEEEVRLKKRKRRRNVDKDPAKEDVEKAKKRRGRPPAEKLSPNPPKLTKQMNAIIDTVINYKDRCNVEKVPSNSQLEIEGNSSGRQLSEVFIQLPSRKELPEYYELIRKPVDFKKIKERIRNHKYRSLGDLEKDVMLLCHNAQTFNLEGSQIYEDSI

By IC50 is commonly meant the concentration needed to halve the response being measured. Lower therefore signals greater potency. Turning to `Clc1ccc(CNc2nc(NC3CCCC3)nc3ccccc23)cc1Cl` [AT-301, N^2-cyclopentyl-N^4-(3,4-dichlorobenzyl)quinazoline-2,4-diamine], the IC50 was ~5 µM at SMARCA2 [1]; 5.21 µM in the data set on HCC827; 2.96 µM with RH30; 6.54 µM with RH4; 4.39 µM in the data set with Molt4; 2.81 µM in the data set on Jurkat. For the same compound, the IC50 with GBM2 was 3.54 µM; in the data set with H2030 it was 6.26 µM; in the data set on ES3, 5.21 µM; in the data set on BT40, 3.49 µM; in the data set with H1975 it was 5.31 µM; with ES6, 2.84 µM. Besides, in the data set on ES3 cells, the 50% inhibitory concentration (IC50) was ~5 µM. Besides, the Tumor growth result with Ewing's sarcoma (EW13) (30% captisol, EW13 PDX in C.B.17 scid females) is “completely suppressed the tumor growth”. For the same compound, the Body weight result in the data set on Ewing's sarcoma (EW13) (EW13 PDX mouse) is recorded as “without any apparent loss in body weight”. Besides, on SMARCA2 [2], the “ATPase activity of SMARCA2 on different substrates” value was “uniformly reduced; also recorded: significantly attenuated”.
